In patent US20180148687A1 (priority 2015, published 2018):
Read-outs that look alike come from different tables or passages of the source.

How the values were obtained:
P2X3 receptors = target: T1, P2X3 receptors (Homo sapiens, UniProt P56373); type: cell-based
T1 sequence (P56373 1-397): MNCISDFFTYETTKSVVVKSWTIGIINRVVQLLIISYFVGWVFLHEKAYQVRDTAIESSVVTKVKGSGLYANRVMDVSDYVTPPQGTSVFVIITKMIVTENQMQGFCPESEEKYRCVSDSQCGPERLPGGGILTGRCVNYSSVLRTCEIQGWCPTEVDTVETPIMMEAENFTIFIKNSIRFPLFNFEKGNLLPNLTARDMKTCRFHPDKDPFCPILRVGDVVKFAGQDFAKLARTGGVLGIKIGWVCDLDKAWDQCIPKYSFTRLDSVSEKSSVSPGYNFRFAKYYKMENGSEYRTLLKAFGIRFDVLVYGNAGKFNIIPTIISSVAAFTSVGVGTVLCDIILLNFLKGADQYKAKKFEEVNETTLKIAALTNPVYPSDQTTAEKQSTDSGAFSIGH
Description: (§1) Differentiated cells at 1-2 weeks were loaded with Fluo-4-AM fluorescence dye (Invitrogen, Calif.) for 1 hr incubation followed by 45 mins period for de-esterification. Cells were washed and incubated in Hanks' balanced salt solution (HBSS), supplemented with 25 mM HEPES buffer, 5.5 mM Glucose. Calcium flux was monitored using an Olympus IX81 inverted epi-fluorescence microscope (Olympus, Markham, ON) coupled to a xenon arc lamp (EXFO, Quebec, QC). Indicated agonists, α,β-methylene-ATP or capsaicin, were diluted in the aforementioned solution and added to the well to give the final stimulation concentration (30 μM α,β-methylene-ATP, 1 μM capsaicin) using a dropping pipette and aspirator system. Fluorescence images were collected using an EMCCD camera (Photometrics, Tucson, Ark.) every 2 s through a GFP filter cube (Semrock, Rochester, N.Y.). In a subset of wells, ionomycin was added as a second stimulation for the dye loading control. […] Off-line analysis of the intensity pattern of Fluo-4 signal was performed in ImageJ (NIH, Bethesda, Md.).

[1] = system: BD-iNPC derived sensory neurons; assay: In vitro chemotherapy induced neuropathy model: neurite length and cell count; type: cell-based, human; settings: 48 hours after treatment
From the text: This miniaturized and automated approach illustrates the potential utility of these converted cells as an in vitro model of human axonopathy for drug-discovery and form the basis to expand to other PNS and CNS disorders.

TRPV1 vanilloid receptor = target: T2, TRPV1 vanilloid receptor (Homo sapiens, UniProt Q8NER1); assay: Calcium imaging (Fluo-4) of BD-iNPC derived sensory neurons, capsaicin response; type: cell-based; settings: 1 μM
T2 construct: endogenous in cells; host or cells: nociceptive sensory neurons differentiated from human blood derived iNPCs
Description: as §1

[2] = system: voltage-activated sodium channels; type: cell-based, human

T2 sequence (Q8NER1 whole entry): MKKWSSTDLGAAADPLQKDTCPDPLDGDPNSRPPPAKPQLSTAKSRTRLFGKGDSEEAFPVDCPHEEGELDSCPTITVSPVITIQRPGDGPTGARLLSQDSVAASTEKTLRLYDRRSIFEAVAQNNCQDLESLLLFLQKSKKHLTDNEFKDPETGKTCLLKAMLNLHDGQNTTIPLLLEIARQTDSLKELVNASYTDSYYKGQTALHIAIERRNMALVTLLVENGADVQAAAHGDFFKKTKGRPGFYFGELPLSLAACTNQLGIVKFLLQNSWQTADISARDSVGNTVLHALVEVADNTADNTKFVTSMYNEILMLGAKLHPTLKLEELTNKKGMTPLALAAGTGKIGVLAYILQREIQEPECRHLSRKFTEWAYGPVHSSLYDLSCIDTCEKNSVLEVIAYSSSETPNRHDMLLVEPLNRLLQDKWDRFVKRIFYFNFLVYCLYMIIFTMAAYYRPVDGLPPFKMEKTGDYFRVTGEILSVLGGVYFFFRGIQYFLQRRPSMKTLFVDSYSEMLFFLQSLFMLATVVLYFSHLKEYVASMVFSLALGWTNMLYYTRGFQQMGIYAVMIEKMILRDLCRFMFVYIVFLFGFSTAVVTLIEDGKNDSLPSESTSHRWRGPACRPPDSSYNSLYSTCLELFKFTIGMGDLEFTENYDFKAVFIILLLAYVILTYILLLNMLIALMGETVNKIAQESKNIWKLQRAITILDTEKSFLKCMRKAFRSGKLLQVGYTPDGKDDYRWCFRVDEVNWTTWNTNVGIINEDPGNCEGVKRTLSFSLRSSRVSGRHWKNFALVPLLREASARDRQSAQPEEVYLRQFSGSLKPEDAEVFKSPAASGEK

O=C(O)c1cc(C(=O)O)c(C(=O)N(Cc2cccc(Oc3ccccc3)c2)[C@H]2CCCc3ccccc32)cc1C(=O)O [A-317491]
calcium-response to α,β-methylene ATP (P2X3 receptors; antagonist added 15 min before calcium imaging, 30 μM α,β-methylene-ATP stimulation): significantly decreased

CC(=O)O[C@H]1C(=O)[C@@]2(C)[C@H]([C@H](OC(=O)c3ccccc3)[C@]3(O)C[C@H](OC(=O)[C@H](O)[C@@H](NC(=O)c4ccccc4)c4ccccc4)C(C)=C1C3(C)C)[C@]1(OC(C)=O)CO[C@@H]1C[C@@H]2O [Taxol]
neurite length of sensory neurons [1]: dose-dependent reduction in length | viability (cell count) of sensory neurons [1]: without concomitant loss of viability

COc1cc(CNC(=O)CCCC/C=C/C(C)C)ccc1O [capsaicin]
calcium transients in BD-iNPC derived neurons (TRPV1 vanilloid receptor): could evoke calcium transients

NC1=N[C@H](O)[C@H]2[C@H]3O[C@]4(O)O[C@@H]([C@@H](O)[C@@]2(N1)[C@@H]4O)[C@]3(O)CO [tetrodotoxin]
rapidly activating and inactivating inward currents [2]: blocked

Nc1ncnc2c1ncn2[C@@H]1O[C@H](COP(=O)(O)CP(=O)(O)OP(=O)(O)O)[C@@H](O)[C@H]1O [α,β-methylene-ATP]
calcium transients in BD-iNPC derived neurons (P2X3 receptors; 30 μM): could evoke calcium transients | calcium flux response (P2X3 receptors; 30 μM, continued culture to day 14): robust response | calcium flux response (P2X3 receptors; 30 μM, neurons at day 7 post-induction): minimal response
